# Like-named read-outs stand apart in the source and are kept apart here.
# Tests used:
# Solubility = assay type: physicochemical
# in vivo = settings: mouse
structure (smiles),measurement,setting,value
CCCCC1C(=O)OC(CCCNC(=N)N)C(C)C(O)C(C)C=C(C)CCCCC(O)CC(O)CC(O)CC(O)CC(O)C(OC2OC(CO)C(O)C2O)C=C(C)C(O)CCCC(O)CCCC(O)CCC(C)C1O (stereo not shown) [Pseudo-primycin-A1-acetate],solubility in ethanol,Solubility; ethanol,5 g/10 ml
same,solubility in methanol,Solubility; methanol,10 g/10 ml
same,solubility in water,Solubility; water,5 g/10 ml
same,LD50,"in vivo; iv, female mice, read-out: LD50 values i.v. female",18.8 mg/kg
same,LD50,"in vivo; iv, male mice, read-out: LD50 values i.v. male",17.7 mg/kg
same,LD50,"in vivo; po, female mice, read-out: LD50 values p.o. female",1580 mg/kg
same,LD50,"in vivo; po, male mice, read-out: LD50 values p.o. male",1720 mg/kg
